Data published in paper PMC5218480 (PLoS ONE, 2017).

Test system: MV-4-11 cells
Assay: Gene expression microarray analysis (Affymetrix PrimeView) and GSEA
Assay type: cell-based, human
Parameters: RFU PODN (11730768_x_at) / Fold change /veh PODN (11730768_x_at) / RFU LINC00158 (11744669_a_at) / Fold change /veh LINC00158 (11744669_a_at) / RFU DUSP10 (11751237_a_at) / Fold change /veh DUSP10 (11751237_a_at) / RFU ID3 (11757404_x_at) / Fold change /veh ID3 (11757404_x_at) / RFU PLEKHG5 (11737974_s_at) / Fold change /veh PLEKHG5 (11737974_s_at) / RFU LRRC4B (11730491_at) / Fold change /veh LRRC4B (11730491_at) / RFU GIMAP4 (11747438_a_at) / Fold change /veh GIMAP4 (11747438_a_at) / RFU KRT8 (11758183_x_at) / Fold change /veh KRT8 (11758183_x_at) / RFU CNN1 (11734310_a_at) / Fold change /veh CNN1 (11734310_a_at) / RFU VPS37D (11726825_at) / Fold change /veh VPS37D (11726825_at) / RFU C10orf10 (11716522_x_at) / Fold change /veh C10orf10 (11716522_x_at) / RFU KIR2DL2 /// KIR2DL4 /// KIR2DL5A /// KIR2DL5B /// KIR2DS1 /// KIR2DS2 /// KIR2DS3 /// KIR2DS4 /// KIR3DL3 /// KIR3DL3 /// KIR3DS1 (11738374_at) / Fold change /veh KIR2DL2 /// KIR2DL4 /// KIR2DL5A /// KIR2DL5B /// KIR2DS1 /// KIR2DS2 /// KIR2DS3 /// KIR2DS4 /// KIR3DL3 /// KIR3DL3 /// KIR3DS1 (11738374_at) / RFU C1QL1 (11718748_at) / Fold change /veh C1QL1 (11718748_at) / RFU TMPRSS4 (11747572_a_at) / Fold change /veh TMPRSS4 (11747572_a_at) / RFU HAMP (11756126_x_at) / Fold change /veh HAMP (11756126_x_at) / RFU RNFT2 (11725882_a_at) / Fold change /veh RNFT2 (11725882_a_at) / RFU NR4A2 (11747474_a_at) / Fold change /veh NR4A2 (11747474_a_at) / RFU ABCC12 (11746883_a_at) / Fold change /veh ABCC12 (11746883_a_at) / RFU TMEM136 (11760407_x_at) / Fold change /veh TMEM136 (11760407_x_at) / RFU CLDN22 /// WWC2 (11732394_at) / Fold change /veh CLDN22 /// WWC2 (11732394_at) / RFU HLA-DPB1 (11760878_x_at) / Fold change /veh HLA-DPB1 (11760878_x_at) / RFU SPINT1 (11716480_a_at) / Fold change /veh SPINT1 (11716480_a_at) / RFU GAP43 (11754022_s_at) / Fold change /veh GAP43 (11754022_s_at) / RFU A4GNT (11735810_at) / Fold change /veh A4GNT (11735810_at) / RFU PRB3 (11715151_x_at) / Fold change /veh PRB3 (11715151_x_at) / RFU TUBB4B (11761932_at) / Fold change /veh TUBB4B (11761932_at) / RFU CAPN14 (11732068_a_at) / Fold change /veh CAPN14 (11732068_a_at) / RFU TMCC2 (11721928_a_at) / Fold change /veh TMCC2 (11721928_a_at) / RFU IRGQ (11745062_a_at) / Fold change /veh IRGQ (11745062_a_at) / RFU FAM174B (11720279_a_at) / Fold change /veh FAM174B (11720279_a_at) / RFU TMPRSS4 (11748680_a_at) / Fold change /veh TMPRSS4 (11748680_a_at) / RFU FAM212B (11763350_a_at) / Fold change /veh FAM212B (11763350_a_at) / RFU PLEKHG5 (11743358_a_at) / Fold change /veh PLEKHG5 (11743358_a_at) / RFU ZSCAN30 (11745921_a_at) / Fold change /veh ZSCAN30 (11745921_a_at) / RFU CMKLR1 (11741424_a_at) / Fold change /veh CMKLR1 (11741424_a_at) / RFU LOC101060620 /// MAPK8IP1 (11723275_at) / Fold change /veh LOC101060620 /// MAPK8IP1 (11723275_at) / RFU SPTSSB (11747773_x_at) / Fold change /veh SPTSSB (11747773_x_at) / RFU PRSS12 (11739890_at) / Fold change /veh PRSS12 (11739890_at) / RFU BIN1 (11741810_x_at) / Fold change /veh BIN1 (11741810_x_at) / RFU WNT11 (11732464_a_at) / Fold change /veh WNT11 (11732464_a_at) / RFU C10orf10 (11716521_a_at) / Fold change /veh C10orf10 (11716521_a_at) / RFU C5orf56 (11738089_at) / Fold change /veh C5orf56 (11738089_at) / RFU CYB561 (11721691_x_at) / Fold change /veh CYB561 (11721691_x_at) / RFU ANKRD19P (11752326_a_at) / Fold change /veh ANKRD19P (11752326_a_at) / RFU OR2T12 /// OR2T33 /// OR2T8 (11738714_s_at) / Fold change /veh OR2T12 /// OR2T33 /// OR2T8 (11738714_s_at) / RFU VCAN (11748164_a_at) / Fold change /veh VCAN (11748164_a_at) / RFU JSRP1 (11732532_at) / Fold change /veh JSRP1 (11732532_at) / RFU KRTAP10-11 (11738290_x_at) / Fold change /veh KRTAP10-11 (11738290_x_at) / RFU MYO3A (11730013_a_at) / Fold change /veh MYO3A (11730013_a_at) / RFU EBF3 (11725865_a_at) / Fold change /veh EBF3 (11725865_a_at) / RFU CAMK2N1 (11719241_x_at) / Fold change /veh CAMK2N1 (11719241_x_at) / RFU C5orf56 (11738088_a_at) / Fold change /veh C5orf56 (11738088_a_at) / RFU OLFML3 (11715873_a_at) / Fold change /veh OLFML3 (11715873_a_at) / RFU LOC100653217 /// NTM (11731650_a_at) / Fold change /veh LOC100653217 /// NTM (11731650_a_at) / RFU MAPK11 (11762145_a_at) / Fold change /veh MAPK11 (11762145_a_at) / RFU FIZ1 (11724087_x_at) / Fold change /veh FIZ1 (11724087_x_at) / RFU OASL (11726364_x_at) / Fold change /veh OASL (11726364_x_at) / RFU SOX15 (11748057_x_at) / Fold change /veh SOX15 (11748057_x_at) / RFU CD79A (11719716_a_at) / Fold change /veh CD79A (11719716_a_at) / RFU HIST1H1D (11736915_at) / Fold change /veh HIST1H1D (11736915_at) / RFU CASKIN2 (11723855_a_at) / Fold change /veh CASKIN2 (11723855_a_at) / RFU LOC730098 (11760151_x_at) / Fold change /veh LOC730098 (11760151_x_at) / RFU OR4N2 (11742367_at) / Fold change /veh OR4N2 (11742367_at) / RFU PRRT2 (11749266_a_at) / Fold change /veh PRRT2 (11749266_a_at) / RFU SNX32 (11753110_a_at) / Fold change /veh SNX32 (11753110_a_at) / RFU CDHR5 (11726645_a_at) / Fold change /veh CDHR5 (11726645_a_at) / RFU RCAN1 (11760418_a_at) / Fold change /veh RCAN1 (11760418_a_at) / RFU FAM167A (11723789_a_at) / Fold change /veh FAM167A (11723789_a_at) / RFU FAM26E (11764081_at) / Fold change /veh FAM26E (11764081_at) / RFU ISYNA1 (11749810_s_at) / Fold change /veh ISYNA1 (11749810_s_at) / RFU ACY1 (11761880_at) / Fold change /veh ACY1 (11761880_at) / RFU 11764098_at / Fold change /veh 11764098_at / RFU SAMD14 (11745864_x_at) / Fold change /veh SAMD14 (11745864_x_at) / RFU NPB (11741838_a_at) / Fold change /veh NPB (11741838_a_at) / RFU TMPRSS6 (11731388_a_at) / Fold change /veh TMPRSS6 (11731388_a_at) / RFU KRTAP10-2 (11738614_at) / Fold change /veh KRTAP10-2 (11738614_at) / RFU ARHGAP8 /// PRR5-ARHGAP8 (11727945_x_at) / Fold change /veh ARHGAP8 /// PRR5-ARHGAP8 (11727945_x_at) / RFU KRTAP5-7 /// NADSYN1 (11734609_at) / Fold change /veh KRTAP5-7 /// NADSYN1 (11734609_at) / RFU RASL12 (11751679_a_at) / Fold change /veh RASL12 (11751679_a_at) / RFU CDKN2B (11736163_a_at) / Fold change /veh CDKN2B (11736163_a_at) / RFU PRF1 (11729649_at) / Fold change /veh PRF1 (11729649_at) / RFU, ZNF638 /// ZNF638-IT1 / Fold change vs veh, ZNF638 /// ZNF638-IT1 / RFU, PANK3 / Fold change vs veh, PANK3 / RFU, SH3YL1 / Fold change vs veh, SH3YL1 / RFU, ZEB2 / Fold change vs veh, ZEB2 / RFU, NRIP1 / Fold change vs veh, NRIP1 / RFU, PTTG1IP / Fold change vs veh, PTTG1IP / RFU, CAPN2 / Fold change vs veh, CAPN2 / RFU, MED14 / Fold change vs veh, MED14 / RFU, SNORA58 / Fold change vs veh, SNORA58 / RFU, C1orf63 / Fold change vs veh, C1orf63 / RFU, LRRFIP1 / Fold change vs veh, LRRFIP1 / RFU, NDUFAF7 / Fold change vs veh, NDUFAF7 / RFU, SLC12A2 / Fold change vs veh, SLC12A2 / RFU, IBTK / Fold change vs veh, IBTK / RFU, ESF1 / Fold change vs veh, ESF1 / Fold change vs veh, TMEM50B / RFU, TAOK1 / Fold change vs veh, TAOK1 / RFU, ACBD3 / Fold change vs veh, ACBD3 / RFU, TMA16 / Fold change vs veh, TMA16 / RFU, RWDD3 / Fold change vs veh, RWDD3 / RFU, BCAT1 / Fold change vs veh, BCAT1 / RFU, EDEM3 / Fold change vs veh, EDEM3 / RFU, TMEM33 / Fold change vs veh, TMEM33 / RFU, WDR75 / Fold change vs veh, WDR75 / RFU, AHCTF1 / Fold change vs veh, AHCTF1 / RFU, TFRC / Fold change vs veh, TFRC / RFU, ZDHHC17 / Fold change vs veh, ZDHHC17 / RFU, NOM1 / Fold change vs veh, NOM1 / RFU, ARL8B / Fold change vs veh, ARL8B / RFU, ZBTB11 / Fold change vs veh, ZBTB11 / RFU, TAMM41 / Fold change vs veh, TAMM41 / RFU, KIAA1704 /// LOC100996395 / Fold change vs veh, KIAA1704 /// LOC100996395 / RFU, ING1 / Fold change vs veh, ING1 / RFU, TRMT61B / Fold change vs veh, TRMT61B / RFU, FUBP3 / Fold change vs veh, FUBP3 / RFU, TP53 / Fold change vs veh, TP53 / RFU, TNKS2 / Fold change vs veh, TNKS2 / RFU, ZFP14 / Fold change vs veh, ZFP14 / RFU, ACTR2 / Fold change vs veh, ACTR2 / RFU, PPP3R1 / Fold change vs veh, PPP3R1 / RFU, PIK3R1 / Fold change vs veh, PIK3R1 / RFU, HNRNPA1 / Fold change vs veh, HNRNPA1 / RFU, RNF170 / Fold change vs veh, RNF170 / RFU, ZNF28 / Fold change vs veh, ZNF28 / RFU, RNGTT / Fold change vs veh, RNGTT / RFU, OGT / Fold change vs veh, OGT / RFU, BRD1 / Fold change vs veh, BRD1 / RFU, MARS / Fold change vs veh, MARS / RFU, ZNF655 / Fold change vs veh, ZNF655 / RFU, FAHD1 / Fold change vs veh, FAHD1 / RFU, BDP1 / Fold change vs veh, BDP1 / RFU, LRRCC1 / Fold change vs veh, LRRCC1 / RFU, ARID1A / Fold change vs veh, ARID1A / RFU, ZNF146 / Fold change vs veh, ZNF146 / RFU, ZNF330 / Fold change vs veh, ZNF330 / RFU, GPN3 / Fold change vs veh, GPN3 / RFU, C9orf123 / Fold change vs veh, C9orf123 / RFU, N4BP2L2 / Fold change vs veh, N4BP2L2 / RFU, ARFIP1 / Fold change vs veh, ARFIP1 / RFU, FAM179B / Fold change vs veh, FAM179B / RFU, BCL10 / Fold change vs veh, BCL10 / RFU, UHRF1BP1L / Fold change vs veh, UHRF1BP1L / RFU, BET1 / Fold change vs veh, BET1 / RFU, CNOT2 / Fold change vs veh, CNOT2 / RFU, ZNF268 / Fold change vs veh, ZNF268 / Fold change vs veh, ZNF507 / RFU, DGCR2 / Fold change vs veh, DGCR2 / RFU, WDSUB1 / Fold change vs veh, WDSUB1 / Fold change vs veh, HSP90B1 /// MIR3652 / RFU, ADSS / Fold change vs veh, ADSS / RFU, GK / Fold change vs veh, GK / RFU, ZNF148 / Fold change vs veh, ZNF148 / RFU, TAF9 / Fold change vs veh, TAF9 / RFU, SLC1A5 / Fold change vs veh, SLC1A5 / RFU, SLMO2 / Fold change vs veh, SLMO2 / RFU, ABCC4 / Fold change vs veh, ABCC4 / RFU, LOC101060439 /// RAP1B / Fold change vs veh, LOC101060439 /// RAP1B / RFU, RFX7 / Fold change vs veh, RFX7 / RFU, GTPBP10 / Fold change vs veh, GTPBP10 / RFU, CNEP1R1 / Fold change vs veh, CNEP1R1 / RFU, BIVM-ERCC5 /// ERCC5 / Fold change vs veh, BIVM-ERCC5 /// ERCC5 / RFU, ILF3 / Fold change vs veh, ILF3 / RFU 11762660_at / Fold change /veh 11762660_at / RFU VCAN (11757783_s_at) / Fold change /veh VCAN (11757783_s_at) / RFU DDX43 (11728927_at) / Fold change /veh DDX43 (11728927_at) / RFU KRT8 (11758188_x_at) / Fold change /veh KRT8 (11758188_x_at) / RFU NKD1 (11759106_at) / Fold change /veh NKD1 (11759106_at) / RFU SRD5A1 (11742802_a_at) / Fold change /veh SRD5A1 (11742802_a_at) / RFU TPSAB1 /// TPSB2 (11721975_s_at) / Fold change /veh TPSAB1 /// TPSB2 (11721975_s_at) / RFU GSTM3 (11746129_a_at) / Fold change /veh GSTM3 (11746129_a_at) / RFU IL23R (11737362_x_at) / Fold change /veh IL23R (11737362_x_at) / RFU TMEM51 (11727254_a_at) / Fold change /veh TMEM51 (11727254_a_at) / RFU PIWIL2 (11732686_x_at) / Fold change /veh PIWIL2 (11732686_x_at) / RFU ORM1 (11744905_x_at) / Fold change /veh ORM1 (11744905_x_at) / RFU CCDC152 (11743942_at) / Fold change /veh CCDC152 (11743942_at) / RFU ECM1 (11717891_a_at) / Fold change /veh ECM1 (11717891_a_at) / RFU IL23R (11748794_a_at) / Fold change /veh IL23R (11748794_a_at) / RFU TNFAIP8L3 (11732012_x_at) / Fold change /veh TNFAIP8L3 (11732012_x_at) / RFU MBOAT4 (11741988_at) / Fold change /veh MBOAT4 (11741988_at) / RFU 11764193_at / Fold change /veh 11764193_at / RFU TMEM53 (11763286_at) / Fold change /veh TMEM53 (11763286_at) / RFU MAGEB2 (11727129_at) / Fold change /veh MAGEB2 (11727129_at) / RFU TMEM200A (11744735_a_at) / Fold change /veh TMEM200A (11744735_a_at) / RFU CCDC152 (11751479_a_at) / Fold change /veh CCDC152 (11751479_a_at) / RFU FAM211A (11726209_a_at) / Fold change /veh FAM211A (11726209_a_at) / RFU RGS16 (11746705_a_at) / Fold change /veh RGS16 (11746705_a_at) / RFU VCAN (11755009_s_at) / Fold change /veh VCAN (11755009_s_at) / RFU RHOB (11743442_s_at) / Fold change /veh RHOB (11743442_s_at) / RFU RGS16 (11720943_a_at) / Fold change /veh RGS16 (11720943_a_at) / RFU RGS16 (11720944_at) / Fold change /veh RGS16 (11720944_at) / RFU, VPS4B / Fold change vs veh, VPS4B / RFU, CREB1 / Fold change vs veh, CREB1 / RFU, DNAJC13 / Fold change vs veh, DNAJC13 / RFU, GNAQ / Fold change vs veh, GNAQ / RFU, CDK5R1 / Fold change vs veh, CDK5R1 / RFU, ZRANB3 / Fold change vs veh, ZRANB3 / RFU, CUL4A / Fold change vs veh, CUL4A / RFU, CCNY / Fold change vs veh, CCNY / RFU, UFL1 / Fold change vs veh, UFL1 / RFU, COG3 / Fold change vs veh, COG3 / RFU, DIAPH2 / Fold change vs veh, DIAPH2 / RFU, SKA2 / Fold change vs veh, SKA2 / RFU, AFF3 / Fold change vs veh, AFF3 / RFU, LMF1 / Fold change vs veh, LMF1 / RFU, IPO11 / Fold change vs veh, IPO11 / RFU, DFFB / Fold change vs veh, DFFB / RFU, FOXP1 / Fold change vs veh, FOXP1 / RFU, CARD8 / Fold change vs veh, CARD8 / RFU, STRN3 / Fold change vs veh, STRN3 / RFU, ADK / Fold change vs veh, ADK / RFU, RASSF2 / Fold change vs veh, RASSF2 / RFU, WIPF1 / Fold change vs veh, WIPF1 / RFU, LARP1B / Fold change vs veh, LARP1B / RFU, RASA1 / Fold change vs veh, RASA1 / RFU, RB1 / Fold change vs veh, RB1 / RFU, PPFIA1 / Fold change vs veh, PPFIA1 / RFU, MAT2A / Fold change vs veh, MAT2A / RFU, CCT5 / Fold change vs veh, CCT5 / RFU, WDR92 / Fold change vs veh, WDR92 / RFU, CUX1 / Fold change vs veh, CUX1 / RFU, TTC7A / Fold change vs veh, TTC7A / RFU, TMEM135 / Fold change vs veh, TMEM135 / RFU, DEPTOR / Fold change vs veh, DEPTOR / RFU, CPM / Fold change vs veh, CPM / RFU, DNAJB6 / Fold change vs veh, DNAJB6 / RFU, CACNA2D3 / Fold change vs veh, CACNA2D3 / RFU, DTX4 / Fold change vs veh, DTX4 / RFU, TFCP2 / Fold change vs veh, TFCP2 / RFU, GMCL1 /// GMCL1P1 / Fold change vs veh, GMCL1 /// GMCL1P1 / RFU, AEBP2 / Fold change vs veh, AEBP2 / RFU, SNHG1 /// SNORD22 /// SNORD25 /// SNORD26 /// SNORD27 /// SNORD28 /// SNORD29 /// SNORD31 / Fold change vs veh, SNHG1 /// SNORD22 /// SNORD25 /// SNORD26 /// SNORD27 /// SNORD28 /// SNORD29 /// SNORD31 / Fold change (Aza/veh), C12orf56 (ProbeSet 11735607_a_at) / Fold change (ACY-1035/veh), C12orf56 (ProbeSet 11735607_a_at) / Fold change (Aza/veh), FGFR1OP (ProbeSet 11751329_s_at) / Fold change (ACY-1035/veh), FGFR1OP (ProbeSet 11751329_s_at) / Fold change (Aza/veh), VPS36 (ProbeSet 11739960_a_at) / Fold change (ACY-1035/veh), VPS36 (ProbeSet 11739960_a_at) / RFU SYPL1 (11715823_x_at) / Fold change /veh SYPL1 (11715823_x_at) / RFU IGFBP7 (11715501_s_at) / Fold change /veh IGFBP7 (11715501_s_at) / RFU REEP3 (11722064_at) / Fold change /veh REEP3 (11722064_at) / RFU IGLL1 (11728026_x_at) / Fold change /veh IGLL1 (11728026_x_at): dose or concentration left out as unconfirmed
Conditions: MV-4-11 cells, 48 hours

Nc1ccc(-c2cccs2)cc1NC(=O)c1ccc2c(c1)cc(C1CC1)n2CCN1CCOCC1 [ACY-1035]
RFU C10orf10 (11716521_a_at): 34.07 RFU
